According to US20240132498A1, “CRYSTALLINE FORMS OF 5-(3,4-DIFLUOROBENZYL)-8-((1R,4R)-4-METHYLCYCLOHEXYL)-6,9-DIOXO-2,5,8-TRIAZASPIRO[3.5]NONANE-2-CARBALDEHYDE” (Cytokinetics, Incorporated, priority 2022, published 2024):

How the values were obtained:
[1] = target: T1, bovine cardiac myofibrils (Bos taurus, UniProt Q9BE39); assay: Skinned bovine cardiac myofibril ATPase assay (PK/LDH-coupled); type: biochemical; conditions: bovine cardiac myofibril ATPase activity; Ca2+ for 50% or 75% activation
T1 construct: full-length cardiac myosin in the context of the native sarcomere; from tissue; host or cells: bovine cardiac left ventricular tissue, detergent-skinned myofibrils
Experimental: To evaluate the effect of the compound 5-(3,4-difluorobenzyl)-8-((1r,4r)-4-methylcyclohexyl)-6,9-dioxo-2,5,8-triazaspiro[3.5]nonane-2-carbaldehyde on the ATPase activity of full-length cardiac myosin in the context of the native sarcomere, skinned myofibril assays were performed. Bovine cardiac myofibrils were obtained by homogenizing bovine cardiac left ventricular tissue in the presence of a detergent such as triton X-100. Such treatment removes membranes and a majority of the soluble cytoplasmic proteins but leaves intact the cardiac sarcomeric acto-myosin apparatus. Myofibril preparations retain the ability to hydrolyze ATP in a Ca^2+ regulated manner. ATPase activities of such myofibril preparations in the presence and absence of the compound 5-(3,4-difluorobenzyl)-8-((1r,4r)-4-methylcyclohexyl)-6,9-dioxo-2,5,8-triazaspiro[3.5]nonane-2-carbaldehyde was assayed at Ca^2+ concentrations activating to a defined fraction of the maximal rate (i.e., […], 75%). The compound 5-(3,4-difluorobenzyl)-8-((1r,4r)-4-methylcyclohexyl)-6,9-dioxo-2,5, 8-triazaspiro [3.5]nonane-2-carbaldehyde was assessed for its ability to inhibit the steady-state ATPase activity of bovine cardiac myofibrils using pyruvate kinase and lactate dehydrogenase (PK/LDH)-coupled enzyme system. This assay regenerates myosin-produced ADP into ATP by oxidizing NADH, producing an absorbance change at 340 nm. Prior to testing this compound, the bovine cardiac myofibrils were assessed for their calcium responsiveness and the calcium concentration that achieves either a 50% (pCa50) or 75% (pCa75) activation of the myofibril system was chosen as the final condition for assessing the inhibitory activity of this compound. All enzymatic activity was measured in a buffered solution containing 12 mM PIPES (piperazine-N,N′-bis(2-ethanesulfonic acid), 2 mM magnesium chloride at pH 6.8 (PM 12 buffer). Final assay conditions were 1 mg/mL of bovine cardiac myofibrils, 4 U/mL pyruvate kinase, 6 U/mL lactate dehydrogenase, 50 μM ATP, 0.1 mg/mL BSA (bovine serum albumin), 10 ppm antifoam, 1 mM DTT, 0.5 mM NADH, 1.5 mM PEP, 0.6 mM EGTA, and an amount of CaCl2) sufficient to achieve either 50% or 75% activation of the myofibril ATPase activity. The compound tested was prepared in accordance with the synthetic procedures described herein.

[2] = Rat single dose pharmacokinetics; type: in vivo; conditions: male, plasma, iv, Sprague Dawley rats; for Vd: read-out: Vss
Experimental: Male Sprague Dawley rats were obtained from Zhejiang Vital River Laboratory Animal Technology Co., Ltd. The animals in IV group had free access to water and food. The animals in PO group were fasted overnight before dosing and provided with food 2 hours post dosing. The IV dose solution was prepared in 10% DMA/50% PG/40% HPOCD solution (40% w/v aqueous HPOCD) at a concentration of 1 mg/mL. The oral dosing suspension was prepared by suspending Test Article in 0.5% HPMC/0.1% Tween 80 in water at a concentration 0.2 mg/mL. Concentrations of IV and PO doses were measured at the end of the study. Pharmacokinetic parameters were calculated using the nominal dose values if the measured values were within 20% of the nominal values. Three rats were dosed IV via a bolus injection via caudal vein. Three rats per dose group were dosed by oral gavage. Blood samples were collected from the jugular vein cannula at predose, 5 (IV only),15, 30 minutes, and 1, 2, 4, 6, and 24 hours post-dose. Blood volumes were replaced with an equal amount of sterile 0.9% saline. Blood samples were centrifuged and the collected plasma was stored at −80° C. for subsequent analysis. Plasma samples were analyzed for Test Article concentrations using a LC/MS/MS method. Briefly, a 50 μL aliquot of each plasma sample was mixed with 100 μL of acetonitrile that contained an internal standard. The mixture was vortexed and centrifuged. Ten (10) μL of the resulting solution was injected onto a reverse-phase C18 column and the resultant peaks detected on a LC/MS/MS equipped with a turbo ionspray ionization source. Sample concentrations below the limit of quantification (BLQ) were treated as zero for pharmacokinetic calculations. Pharmacokinetic parameters were estimated from individual animals using noncompartmental analysis of the concentration-time data (Phoenix WinNonLin software, version 64; Pharsight, Mountain View, CA). The elimination rate constant (k) was calculated as the absolute value of the slope of the linear regression of logarithm (log) of the concentration versus time for the last three data points of the concentration-time profiles. Apparent elimination half-life (t1/2) values were calculated as In(2)/k. Area under the concentration-time curve (AUC) values were estimated using linear trapezoidal method. AUC values were calculated from the dosing time to the last measurable concentration. AUC∞ values were calculated as the sum of the corresponding AUC and the ratio of the last detectable concentration divided by k (AUCt-∞). Plasma clearance (CL) was calculated from Dose/AUC∞. Mean resident time (MRT) was estimated by moment analysis. Volume of distribution at steady state (Vss) was calculated from MRT∞×CL. Maximum concentration (Cmax) and time to reach Cmax (tmax) were recorded as observed. Bioavailability was calculated from the ratio of dose normalized AUC∞,po of individual rats/mean dAUC∞,iv×100% where dAUC was the dose normalized AUC value. Compounds tested were prepared in accordance with the synthetic procedures described herein.

T1 sequence (Q9BE39 whole entry): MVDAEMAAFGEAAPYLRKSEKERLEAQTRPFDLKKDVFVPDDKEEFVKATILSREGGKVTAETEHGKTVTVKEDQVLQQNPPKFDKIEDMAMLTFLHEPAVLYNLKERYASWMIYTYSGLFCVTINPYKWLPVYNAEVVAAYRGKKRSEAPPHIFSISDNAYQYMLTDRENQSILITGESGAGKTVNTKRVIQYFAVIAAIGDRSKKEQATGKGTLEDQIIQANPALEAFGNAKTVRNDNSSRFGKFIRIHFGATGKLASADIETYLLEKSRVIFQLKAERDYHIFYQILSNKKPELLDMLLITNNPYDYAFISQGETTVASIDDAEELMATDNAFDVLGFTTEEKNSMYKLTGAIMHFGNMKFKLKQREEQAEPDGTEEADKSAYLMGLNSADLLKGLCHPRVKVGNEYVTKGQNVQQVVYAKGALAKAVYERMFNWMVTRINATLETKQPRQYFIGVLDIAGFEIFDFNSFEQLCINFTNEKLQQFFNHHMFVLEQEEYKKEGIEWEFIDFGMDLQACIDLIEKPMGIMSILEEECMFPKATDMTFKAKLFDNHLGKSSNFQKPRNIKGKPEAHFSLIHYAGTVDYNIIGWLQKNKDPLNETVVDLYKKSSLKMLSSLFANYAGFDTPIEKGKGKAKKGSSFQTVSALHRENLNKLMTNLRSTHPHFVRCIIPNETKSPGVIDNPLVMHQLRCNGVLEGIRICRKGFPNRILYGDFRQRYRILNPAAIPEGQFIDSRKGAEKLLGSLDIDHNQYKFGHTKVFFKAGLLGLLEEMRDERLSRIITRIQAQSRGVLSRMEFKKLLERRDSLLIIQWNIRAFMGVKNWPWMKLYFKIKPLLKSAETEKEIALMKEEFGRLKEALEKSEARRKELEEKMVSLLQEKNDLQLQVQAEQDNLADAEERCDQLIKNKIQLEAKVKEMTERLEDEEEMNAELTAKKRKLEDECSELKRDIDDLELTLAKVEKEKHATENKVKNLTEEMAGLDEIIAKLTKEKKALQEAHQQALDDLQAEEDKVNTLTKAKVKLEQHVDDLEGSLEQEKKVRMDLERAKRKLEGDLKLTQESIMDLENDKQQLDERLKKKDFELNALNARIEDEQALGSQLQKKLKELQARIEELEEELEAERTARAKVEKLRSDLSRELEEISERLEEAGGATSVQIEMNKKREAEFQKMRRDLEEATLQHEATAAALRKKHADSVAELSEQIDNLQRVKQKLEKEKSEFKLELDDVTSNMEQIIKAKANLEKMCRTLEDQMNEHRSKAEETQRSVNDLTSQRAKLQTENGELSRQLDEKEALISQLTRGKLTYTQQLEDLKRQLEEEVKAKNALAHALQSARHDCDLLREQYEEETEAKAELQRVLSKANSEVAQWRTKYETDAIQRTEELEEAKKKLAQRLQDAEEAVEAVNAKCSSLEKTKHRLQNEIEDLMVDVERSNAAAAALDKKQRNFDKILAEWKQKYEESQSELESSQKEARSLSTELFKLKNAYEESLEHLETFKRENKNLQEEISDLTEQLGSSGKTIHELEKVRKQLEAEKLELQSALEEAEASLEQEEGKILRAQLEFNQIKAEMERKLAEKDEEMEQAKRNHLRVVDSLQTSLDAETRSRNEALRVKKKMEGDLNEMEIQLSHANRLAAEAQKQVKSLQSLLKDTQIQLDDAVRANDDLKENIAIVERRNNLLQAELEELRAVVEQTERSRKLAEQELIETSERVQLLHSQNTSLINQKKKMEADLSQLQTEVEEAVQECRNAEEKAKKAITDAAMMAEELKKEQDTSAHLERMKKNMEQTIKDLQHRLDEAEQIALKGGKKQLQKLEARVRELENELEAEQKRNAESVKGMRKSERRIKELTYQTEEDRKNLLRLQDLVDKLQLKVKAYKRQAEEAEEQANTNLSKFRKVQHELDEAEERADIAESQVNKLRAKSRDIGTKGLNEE
T1 sequence (P85100 whole entry partner): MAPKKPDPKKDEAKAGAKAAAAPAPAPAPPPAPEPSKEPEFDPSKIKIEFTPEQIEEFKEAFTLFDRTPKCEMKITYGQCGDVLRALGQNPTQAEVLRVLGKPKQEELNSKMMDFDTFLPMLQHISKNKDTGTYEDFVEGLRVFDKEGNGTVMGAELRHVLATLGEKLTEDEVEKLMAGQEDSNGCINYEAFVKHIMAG
T1 sequence (Q3SZE5 whole entry partner): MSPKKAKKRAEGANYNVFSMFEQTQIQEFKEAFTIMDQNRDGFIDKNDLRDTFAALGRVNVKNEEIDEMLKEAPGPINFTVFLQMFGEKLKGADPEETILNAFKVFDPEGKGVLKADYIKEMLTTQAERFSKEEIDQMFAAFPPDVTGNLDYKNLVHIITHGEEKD

Row | Compound | CDMF IC15 [1] [nM] | clearance [2] [mL/min/kg] | half-life [2] [h] | Vd [2] [L/kg]
1 | O=CN1CC2(C1)C(=O)N(c1ccc(F)cc1F)CC(=O)N2Cc1ccc(Cl)cc1 [Comparator A, 5-(4-chlorobenzyl)-8-(2,4-difluorophenyl)-6,9-dioxo-2,5,8-triazaspiro[3.5]nonane-2-carbaldehyde] | 1800 | 29.6 | 6.48 | 15.1
2 | O=C1[C@H](C2COC2)N(Cc2ccc(C(F)(F)F)cc2)C(=O)CN1c1ncc(Cl)cc1F [Comparator C, (S)-1-(5-chloro-3-fluoropyridin-2-yl)-3-(oxetan-3-yl)-4-(4-(trifluoromethyl)benzyl)piperazine-2,5-dione, reference compound] | 1100 | 20.2 | 3.3 | 5.2
3 | CC(=O)N1CC2(C1)C(=O)N(c1ccc(C#N)cc1F)CC(=O)N2Cc1ccc(C(F)(F)F)cc1 [Comparator D, 4-(2-acetyl-6,9-dioxo-5-(4-(trifluoromethyl)benzyl)-2,5,8-triazaspiro[3.5]nonan-8-yl)-3-fluorobenzonitrile] | 1100 | 8.23 | 4.84 | 2.98
4 | O=CN1CC2(C1)C(=O)N([C@H]1CC[C@H](C(F)F)CC1)CC(=O)N2Cc1ccc(C(F)(F)F)cc1 [Comparator E, 8-((1r,4r)-4-(difluoromethyl)cyclohexyl)-6,9-dioxo-5-(4-(trifluoromethyl)benzyl)-2,5,8-triazaspiro[3.5]nonane-2-carbaldehyde] | 1300 | 18.8 | 5.4 | 8.23
5 | C[C@H]1CC[C@H](N2CC(=O)N(Cc3ccc(F)c(F)c3)C3(CN(C=O)C3)C2=O)CC1 [Compound 1, 5-(3,4-difluorobenzyl)-8-((1r,4r)-4-methylcyclohexyl)-6,9-dioxo-2,5,8-triazaspiro[3.5]nonane-2-carbaldehyde] | 1500 | 52.6 | 3.34 | 13
